Measurements taken from PubChem BioAssay (NCI).
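1) Cells in 96-well plates. 2) Compound, 48 h, 5 concentrations. 3) Linear interpolation between surrounding doses. 4) Unreached endpoint = highest concentration. GI50 is the concentration that inhibits growth by half. TGI marks complete inhibition of growth.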

Key:
Assay in all cases: inhibition of tumour cell growth, NCI panel, 48 h; in the data active = GI50 below about 0.43 µM; inactive = the rest
NCI-H23 lung = system: NCI-H23 lung
NCI-H460 lung = system: NCI-H460 lung
NCI-H522 lung = system: NCI-H522 lung
NCI/ADR-RES ovarian = system: NCI/ADR-RES ovarian
OVCAR-3 ovarian = system: OVCAR-3 ovarian
OVCAR-4 ovarian = system: OVCAR-4 ovarian
OVCAR-5 ovarian = system: OVCAR-5 ovarian
OVCAR-8 ovarian = system: OVCAR-8 ovarian
PC-3 prostate = system: PC-3 prostate
RPMI-8226 leukemia = system: RPMI-8226 leukemia
RXF 393 renal = system: RXF 393 renal
SF-268 CNS = system: SF-268 CNS
SF-295 CNS = system: SF-295 CNS
SF-539 CNS = system: SF-539 CNS
SK-MEL-2 melanoma = system: SK-MEL-2 melanoma
SK-MEL-28 melanoma = system: SK-MEL-28 melanoma
SK-MEL-5 melanoma = system: SK-MEL-5 melanoma
SK-OV-3 ovarian = system: SK-OV-3 ovarian
SN12C renal = system: SN12C renal
SNB-19 CNS = system: SNB-19 CNS
SNB-75 CNS = system: SNB-75 CNS
SR leukemia = system: SR leukemia
SW-620 colon = system: SW-620 colon
T-47D breast = system: T-47D breast
TK-10 renal = system: TK-10 renal
U251 CNS = system: U251 CNS
UACC-257 melanoma = system: UACC-257 melanoma
UACC-62 melanoma = system: UACC-62 melanoma
UO-31 renal = system: UO-31 renal

O=C1NC(=NCc2ccccc2Br)S/C1=C\c1ccc2ncccc2c1
16.5 µM: TGI (NCI-H522 lung)
> 18.6 µM: TGI (SK-OV-3 ovarian)
24.5 µM: TGI (T-47D breast)
inactive: GI50 (NCI-H460 lung) 6.1 µM | GI50 (NCI-H522 lung) 6.22 µM | GI50 (NCI/ADR-RES ovarian) 11.9 µM | GI50 (OVCAR-3 ovarian) 10 µM | GI50 (OVCAR-4 ovarian) 7.35 µM | GI50 (OVCAR-5 ovarian) > 25 µM | GI50 (OVCAR-8 ovarian) 9.14 µM | GI50 (PC-3 prostate) 15.2 µM | GI50 (RPMI-8226 leukemia) 8.74 µM | GI50 (RXF 393 renal) 8.07 µM | GI50 (SF-268 CNS) 7.83 µM | GI50 (SF-295 CNS) 8.03 µM | GI50 (SF-539 CNS) 5.84 µM | GI50 (SK-MEL-2 melanoma) 7.66 µM | GI50 (SK-MEL-28 melanoma) > 20.5 µM | GI50 (SK-MEL-5 melanoma) 10.4 µM | GI50 (SK-OV-3 ovarian) 8.11 µM | GI50 (SN12C renal) 9.31 µM | GI50 (SNB-19 CNS) 9.4 µM | GI50 (SNB-75 CNS) 3.82 µM | GI50 (SR leukemia) 1.03 µM | GI50 (SW-620 colon) 6.71 µM | GI50 (T-47D breast) 6.78 µM | GI50 (TK-10 renal) 14.8 µM | GI50 (U251 CNS) 4.77 µM | GI50 (UACC-257 melanoma) 17.8 µM | GI50 (UACC-62 melanoma) 11.8 µM | GI50 (UO-31 renal) 8.08 µM
> 25 µM: TGI (NCI-H23 lung) | TGI (NCI-H460 lung) | TGI (NCI/ADR-RES ovarian) | TGI (OVCAR-3 ovarian) | TGI (OVCAR-4 ovarian) | TGI (OVCAR-5 ovarian) | TGI (OVCAR-8 ovarian) | TGI (PC-3 prostate) | TGI (RPMI-8226 leukemia) | TGI (RXF 393 renal) | TGI (SF-268 CNS) | TGI (SF-295 CNS) | TGI (SF-539 CNS) | TGI (SK-MEL-28 melanoma) | TGI (SK-MEL-5 melanoma) | TGI (SN12C renal) | TGI (SNB-19 CNS) | TGI (SW-620 colon) | TGI (TK-10 renal) | TGI (U251 CNS) | TGI (UACC-257 melanoma) | TGI (UACC-62 melanoma)
> 23.7 µM: TGI (SNB-75 CNS)
> 22 µM: TGI (UO-31 renal)
8.39 µM: TGI (SR leukemia)
19 µM: TGI (SK-MEL-2 melanoma)
